The values below come from US8536201B2, “Pesticidal arylpyrrolidines” (Bayer Intellectual Property GmbH, priority 2009, dated 2013).

Common to all, as to type: in vivo
In one data set the test system is Aulacophora femoralis. The experiment in a line: Cucurbit leaf beetle (Aulacophora femoralis) cucumber leaf dip test. Particulars: second instar larvae, treated cucumber leaves, after 7 days. Here is the method:
BIOLOGICAL TEST EXAMPLE 3
Cucurbit Leaf Beetle (Aulacophora femoralis)
Leaves of cucumber were immersed in the test solution at the appropriate concentration, and the leaves were dried in air. The leaves were then put in a plastic cup containing sterilized black soil and five Aulacophora femoralis at second instar larvae were released in the cup. The cups were placed in a temperature-controlled chamber at 25° C. After 7 days, the number of dead larvae was counted, and thus the insecticidal activity was calculated. An insecticidal activity of 100% means that all larvae were killed, whereas an insecticidal activity of 0% means that no larva was killed.

For data set [1], the system named is Spodoptera litura. In words: Tobacco cutworm (Spodoptera litura) larvae using artificial diet. The conditions noted are these: 20 ppm, 3rd-instar larvae. Here is the method:
BIOLOGICAL TEST EXAMPLE 1.2
Tobacco Cutworm (Spodoptera litura) Larvae Using Artificial Diet
2.3 g of artificial diet powder is put into a PET cup (7.5 cm diameter, 4 cm depth). The powder was leveled to make a layer in the bottom of the cup. 5 ml of a chemical solution is poured onto the powder and spread uniformly. The cup with treated diet powder is placed quiet to let the diet jell. Into each testing cup five 3rd-instar larvae were released. The testing cup is closed with the lid and placed in a temperature-controlled room at 25° C. and 50-60% R.H., 16L8D lighting conditions.
The mortality in % was determined according to the following criteria:
1 larva dead: 20% Efficacy
5 larvae dead: 100% Efficacy

For data set [2], the system named is Spodoptera litura. In words: Tobacco cutworm (Spodoptera litura) larvae, sweet potato leaf dip test. The conditions noted are these: 20 ppm; third instar larvae, treated sweet potato leaves, after 7 days. On the procedure: Unless not mentioned otherwise, the test solutions were prepared as follows:
Solvent: dimethyl formamide, 3 parts by weight
Emulsifier: polyoxyethylene alkyl phenyl ether, 1 part by weight
To prepare the test solution, 1 part by weight of an active compound is mixed with the above-mentioned amount of solvent containing the above-mentioned amount of emulsifier, and the mixture is diluted with water to the desired concentration.
BIOLOGICAL TEST EXAMPLE 1.1
Tobacco Cutworm (Spodoptera litura) Larvae
Leaves of sweet potato were immersed in the test solution at the appropriate concentration, and the leaves were dried in air. The leaves were then placed in a petri dish having a diameter of 9 cm, and ten Spodoptera litura at third instar larvae were released therein. The petri dishes were placed in a temperature-controlled chamber at 25° C. After 2 days and 4 days more sweet potato leaves were added. After 7 days, the number of dead larvae was counted to calculate the insecticidal activity. An insecticidal activity of 100% means that all larvae were killed, whereas an insecticidal activity of 0% means that no larva was killed. In the current test, the results of two petri dishes for each treatment were averaged.

A further data set has as its system Tetranychus urticae. In words: Two-spotted spider mite Tetranychus urticae spray test on kidney bean. Particulars: adult mites, after 7 days. On the procedure: BIOLOGICAL TEST EXAMPLE 2
Two-Spotted Spider Mite Tetranychus urticae
50 to 100 adult mites of Tetranychus urticae were inoculated to leaves of kidney bean at two-leaf stage planted in a pot of 6 cm in diameter. After one day, test solution at the appropriate concentration was sprayed thereon in a sufficient amount using a spray gun. After the spraying, the plant pot was placed inside a greenhouse, and after 7 days, the acaricidal activity was calculated. An acaricidal activity of 100% means that all mites were killed, an acaricidal activity of 0% means that no mite was killed.

For the next data set, the system named is Ctenocephalides felis. In words: Ctenocephalides felis test (CTECFE), blood feeding. The conditions noted are these: 100 ppm in cattle blood; adult unfed fleas, after 2 days. On the procedure: BIOLOGICAL TEST EXAMPLE 7
Ctenocephalides felis—Test (CTECFE)
Solvent: Dimethyl Sulfoxide
To produce a suitable preparation of active compound, 10 mg of active compound are dissolved in 0.5 ml solvent, and the concentrate is diluted with cattle blood to the desired concentration. Approximately 20 adult unfed (Ctenocephalides felis) are placed in flea chambers. The blood chamber, sealed with parafilm on the bottom, are filled with cattle blood supplied with compound solution and placed on top of the flea chamber, so that the fleas are able to suck the blood. The blood chamber is heated to 37° C. whereas the flea chamber is kept at room temperature.
After 2 days mortality in % is determined. 100% means that all the fleas have been killed; 0% means that none of the fleas have been killed.

With `CC(=O)NC(C)c1ccc(N2CCC(c3cc(Cl)cc(Cl)c3)(C(F)(F)F)C2)cc1` (racemic) [Compound 1], the insecticidal activity in the data set on Aulacophora femoralis (100 ppm), with Spodoptera litura [1] and in the data set with Spodoptera litura [2] was 100% throughout.
For `CCC(=O)NC(C)c1ccc(N2CCC(c3cc(Cl)cc(C(F)(F)F)c3)(C(F)(F)F)C2)cc1` (racemic) [Compound 4], the insecticidal activity with Tetranychus urticae (20 ppm), with Aulacophora femoralis (20 ppm), with Spodoptera litura [1] and with Spodoptera litura [2] was 100% in each case.
Take `CC(NC(=O)C1CC1)c1ccc(N2CCC(c3cc(Cl)cc(C(F)(F)F)c3)(C(F)(F)F)C2)cc1` (racemic) [Compound 5]: the insecticidal activity in the data set with Tetranychus urticae (20 ppm), in the data set with Aulacophora femoralis (20 ppm), with Spodoptera litura [1] and in the data set with Spodoptera litura [2] was 100% throughout.
With `CC(=O)NC(C)c1ccc(N2CCC(c3cc(Cl)c(Cl)c(Cl)c3)(C(F)(F)F)C2)cc1` (racemic) [Compound 6], the insecticidal activity in the data set with Tetranychus urticae (20 ppm), with Spodoptera litura [1] and in the data set on Spodoptera litura [2] was 100% each time.
For the molecule `CCC(=O)NC(C)c1ccc(N2CCC(c3cc(Cl)c(Cl)c(Cl)c3)(C(F)(F)F)C2)cc1` (racemic) [Compound 7], the insecticidal activity in the data set with Tetranychus urticae (20 ppm), in the data set on Aulacophora femoralis (100 ppm), with Spodoptera litura [1] and in the data set with Spodoptera litura [2] was 100% in each case.
For the molecule `CC(=O)NC(C)c1ccc(N2CCC(c3cc(C(F)(F)F)cc(C(F)(F)F)c3)(C(F)(F)F)C2)cc1` (racemic) [Compound 9], the insecticidal activity in the data set with Spodoptera litura [1] and with Spodoptera litura [2] was 100% in each case.
In the case of `CC(NC(=O)C1CC1)c1ccc(N2CCC(c3cc(C(F)(F)F)cc(C(F)(F)F)c3)(C(F)(F)F)C2)cc1` (racemic) [Compound 11], the insecticidal activity in the data set with Tetranychus urticae (20 ppm), with Aulacophora femoralis (20 ppm), with Spodoptera litura [1] and in the data set with Spodoptera litura [2] was 100% in each case.
For the molecule `CC(NC(=O)CC1CC1)c1ccc(N2CCC(c3cc(Cl)c(Cl)c(Cl)c3)(C(F)(F)F)C2)cc1` (racemic) [Compound 12], the insecticidal activity in the data set on Tetranychus urticae (20 ppm) and in the data set on Spodoptera litura [1] was 100% each time. In addition, the “activity (mortality in %)” value in the data set with Ctenocephalides felis amounted to 95%.
As to `CC(NC(=O)CC1CC1)c1ccc(N2CCC(c3cc(C(F)(F)F)cc(C(F)(F)F)c3)(C(F)(F)F)C2)cc1` (racemic) [Compound 13], the insecticidal activity in the data set with Tetranychus urticae (20 ppm) and in the data set with Spodoptera litura [1] was 100% each time.
In the case of `CC(=O)N[C@@H](C)c1ccc(N2CCC(c3cc(Cl)cc(Cl)c3)(C(F)(F)F)C2)cc1` (some centres unmarked) [Compound 1-b], the insecticidal activity in the data set with Tetranychus urticae (100 ppm), in the data set with Aulacophora femoralis (20 ppm), in the data set on Spodoptera litura [1] and in the data set with Spodoptera litura [2] was 100% throughout.
As to `CCC(=O)N[C@@H](C)c1ccc(N2CCC(c3cc(Cl)cc(Cl)c3)(C(F)(F)F)C2)cc1` (some centres unmarked) [Compound 2-b], the insecticidal activity with Aulacophora femoralis (20 ppm), in the data set with Spodoptera litura [1] and in the data set on Spodoptera litura [2] was 100% in each case.
In the case of `CC(=O)NC(C)c1ccc(N2CCC(c3cc(Cl)cc(Cl)c3)(C(F)(F)F)C2)cc1Cl` (centres unmarked) [Compound 3-66, reference compound], the insecticidal activity in the data set with Aulacophora femoralis (20 ppm) is listed as 50%; with Spodoptera litura [2], 20%.
Take `C[C@H](NC(=O)C1CC1)c1ccc(N2CCC(c3cc(Cl)cc(Cl)c3)(C(F)(F)F)C2)cc1` (some centres unmarked) [Compound 3-b]: the insecticidal activity in the data set with Tetranychus urticae (20 ppm), in the data set with Aulacophora femoralis (20 ppm), in the data set with Spodoptera litura [1] and with Spodoptera litura [2] was 100% each time.
With `CCC(=O)N[C@@H](C)c1ccc(N2CCC(c3cc(Cl)cc(C(F)(F)F)c3)(C(F)(F)F)C2)cc1` (some centres unmarked) [Compound 4-b], the insecticidal activity with Tetranychus urticae (20 ppm), with Aulacophora femoralis (20 ppm), in the data set on Spodoptera litura [1] and in the data set with Spodoptera litura [2] was 100% in each case.
On to `C[C@H](NC(=O)C1CC1)c1ccc(N2CCC(c3cc(Cl)cc(C(F)(F)F)c3)(C(F)(F)F)C2)cc1` (some centres unmarked) [Compound 5-b], for which the insecticidal activity in the data set with Tetranychus urticae (20 ppm), in the data set with Aulacophora femoralis (20 ppm), in the data set on Spodoptera litura [1] and with Spodoptera litura [2] was 100% each time.
Take `CC(=O)N[C@@H](C)c1ccc(N2CCC(c3cc(Cl)c(Cl)c(Cl)c3)(C(F)(F)F)C2)cc1` (some centres unmarked) [Compound 6-b]: the insecticidal activity in the data set with Tetranychus urticae (20 ppm), in the data set on Spodoptera litura [1] and in the data set on Spodoptera litura [2] was 100% each time.
Consider `CCC(=O)N[C@H](C)c1ccc(N2CCC(c3cc(Cl)c(Cl)c(Cl)c3)(C(F)(F)F)C2)cc1` (some centres unmarked) [Compound 7-a], for which the insecticidal activity in the data set on Aulacophora femoralis (100 ppm) was determined as 100%. For the same molecule, the “activity (mortality in %)” value in the data set on Ctenocephalides felis was 80%.
In the case of `CCC(=O)N[C@@H](C)c1ccc(N2CCC(c3cc(Cl)c(Cl)c(Cl)c3)(C(F)(F)F)C2)cc1` (some centres unmarked) [Compound 7-b], the insecticidal activity with Tetranychus urticae (20 ppm), with Aulacophora femoralis (20 ppm), in the data set on Spodoptera litura [1] and with Spodoptera litura [2] was 100% in each case.
For `CCC(=O)N[C@H](C)c1ccc(N2CCC(c3cc(C(F)(F)F)cc(C(F)(F)F)c3)(C(F)(F)F)C2)cc1` (some centres unmarked) [Compound 10-a], the insecticidal activity in the data set on Aulacophora femoralis (20 ppm) was 100%. In the data set with Ctenocephalides felis, the “activity (mortality in %)” value is 90%.
For the molecule `CCC(=O)N[C@@H](C)c1ccc(N2CCC(c3cc(C(F)(F)F)cc(C(F)(F)F)c3)(C(F)(F)F)C2)cc1` (some centres unmarked) [Compound 10-b], the insecticidal activity with Tetranychus urticae (20 ppm), with Aulacophora femoralis (20 ppm), in the data set on Spodoptera litura [1] and in the data set with Spodoptera litura [2] was 100% in each case.
On to `C[C@H](NC(=O)CC1CC1)c1ccc(N2CCC(c3cc(Cl)c(Cl)c(Cl)c3)(C(F)(F)F)C2)cc1` (some centres unmarked) [Compound 12-b], for which the insecticidal activity with Tetranychus urticae (20 ppm), in the data set on Aulacophora femoralis (100 ppm) and in the data set with Spodoptera litura [1] was 100% in each case.
For `C[C@H](NC(=O)CC1CC1)c1ccc(N2CCC(c3cc(C(F)(F)F)cc(C(F)(F)F)c3)(C(F)(F)F)C2)cc1` (some centres unmarked) [Compound 13-b], the insecticidal activity with Tetranychus urticae (20 ppm), in the data set on Aulacophora femoralis (100 ppm) and with Spodoptera litura [1] was 100% in each case.
With `COCCC(=O)N[C@@H](C)c1ccc(N2CCC(c3cc(Cl)c(Cl)c(Cl)c3)(C(F)(F)F)C2)cc1` (some centres unmarked) [Compound 14-b], the insecticidal activity with Tetranychus urticae (20 ppm), with Aulacophora femoralis (100 ppm) and in the data set with Spodoptera litura [1] was 100% in each case.
As to `C[C@H](NC(=O)c1c(F)cc(F)cc1F)c1ccc(N2CCC(c3cc(C(F)(F)F)cc(C(F)(F)F)c3)(C(F)(F)F)C2)cc1` (some centres unmarked) [Compound 16-b], the insecticidal activity in the data set on Tetranychus urticae (20 ppm), in the data set on Aulacophora femoralis (20 ppm) and in the data set with Spodoptera litura [1] was 100% in each case.
For the molecule `C[C@H](NC(=O)C1CC1)c1ccc(N2CCC(c3cc(C(F)(F)F)nc(C(F)(F)F)c3)(C(F)(F)F)C2)cc1` (stereo partly drawn) [Compound 17-b, N-[(1S)-1-(4-{3-[2,6-bis(trifluoromethyl)pyridin-4-yl]-3-(trifluoromethyl)pyrrolidin-1-yl}phenyl)ethyl]cyclopropanecarboxamide], the insecticidal activity in the data set with Tetranychus urticae (20 ppm), in the data set with Aulacophora femoralis (20 ppm) and in the data set on Spodoptera litura [1] was 100% in each case.
